Measurements reported in patent US20250090473A1, “Macrophage Targeted Immunotherapeutics” (The General Hospital Corporation, priority 2017, published 2025).
Read-outs that look alike come from different tables or passages of the source.

Experiments:
[1] = test system: murine M2-like macrophages; experiment: High-content morphological screening of macrophage re-education (M1 enrichment); assay type: cell-based; settings: for M1 enrichment in response to drug treatment: variable concentrations, FIG. 5A
Method: Cells were maintained in the indicated medium at 37° C. and 5% CO2 and screened regularly for mycoplasma. RAW 264.7 cells were sourced from ATCC and maintained in Dulbecco's Modified Eagles Medium supplemented with 10% heat inactivated fetal calf serum (Atlanta Biologicals), 100 IU penicillin (Invitrogen), and 100 μg mL^−1 streptomycin (Invitrogen), and […] L-glutamine. The MC38 mouse colon adenocarcinoma cell lines were provided by Mark Smyth (QIMR Berghofer Medical Research Institute) with stable transfection of the H2B-Apple reporter to yield a MC38-H2B-mApple cell line employed in intravital microscopy studies. Murine bone marrow-derived macrophages (BMDMs) were isolated and derived by adaptation of published procedures known to those of skill in the art. Briefly, bone marrow was extracted from the surgically resected femur and tibia of naive C57BL/6 mice, dissociated and passed through a 40 μm strainer, and red blood cells lysed by ammonium chloride (StemCell Tech). Resultant bone marrow cells were plated in either 24-well (Corning 3527, for PCR analysis) or optical-bottom 384-well plates (Thermo Fisher 142761, for image analysis) at 1×10^6 cells mL^−1 in Iscove's Modified Dulbecco's Medium supplemented with 10% heat inactivated fetal calf serum, 100 IU penicillin, 100 μg ml^−1 streptomycin (Invitrogen) and 10 ng mL^−1 recombinant murine M-CSF (PeproTech, 315-02); media was replenished every two days. Human macrophages were derived from peripheral blood mononuclear cells isolated using Ficoll-Paque PLUS (GE Healthcare) gradient separation and derived in the presence of 50 ng mL^−1 recombinant human M-CSF (PeproTech, 300-25). Cell proliferation was assessed by PrestoBlue (Fisher) following manufacturer's protocols.
For morphological analysis, media was replenished with M-CSF-free media on day 7 followed by drug dosing (Table 1).
After 48 hours, cells were fixed with formaldehyde (30 min, 37° C.) and stained for actin (5.0 μg mL^−1 DyLight 554 Phalloidin, Cell Signaling Technology), cell membrane (5.0 μg mL^−1 Alexa Fluor 647 wheat germ agglutinin, Thermo Fisher) and nuclei (DAPI, Invitrogen) for 25 min at room temperature. Plates were washed by PBS prior to imaging on a custom Olympus-based automated high-content screening microscope. Four images were acquired per well in a 2×2 grid, imported into CellProfiler (Broad Institute) for pre-processing and segmentation (Table 2).
Computational cell classification was performed in CellProfiler Analyst (Broad Institute) by random forest assignment. Training data (examples provided, Supplementary Figure S1) consisted of approximately 50 healthy cells each representing undifferentiated (M0), M1-like, or M2-like phenotypes. The fast gentle algorithm was trained on the selected cells for […] determination of weights and thresholds for cell shape features. The resulting set of parameters was used to score all other images. The enrichment score for M1 cells was output back into the database and imported into KNIME to generate per-well and per-treatment averages.
Cell morphology was used as an integrated biomarker of cell function, including as an indicator for age and immunosuppressive capacity. The method that was used uses high-content image analysis via computational automated segmentation to extract features of single cells such as cellular radius, axis lengths, compactness, and eccentricity which are associated with the polarization state. […]

[2] = test system: M2-like (IL-4 treated) murine macrophages; experiment: qPCR transcriptional analysis of M2-like (IL-4 treated) murine macrophages; assay type: cell-based; settings: Mus musculus, Macrophage, M2-like macrophages cultured with R848, 24 hours, given as logIC50
Method: For transcriptional analysis, derived murine macrophages were treated with 10 ng mL^−1 recombinant mouse IL-4 (PeproTech 214-14) for 24 hours to induce an M2-like polarization state and subsequently dosed with fresh media supplemented by pharmacologic drugs at the prescribed concentrations. Macrophages treated only with IL-4 (10 ng mL^-1) or LPS (100 ng mL^-1) and IFNg (50 ng mL^-1) served as internal controls for M2-like and M1-like transcription profiles, respectively. […] Data are presented as the gene expression (fold change relative to hprt or β-actin, as indicated) or M1-likeness, calculated as described in Example 2, FIG. 20B. […]
A subset of drugs having a range of M1 enrichment activities were further scrutinized by qPCR analysis of representative M1-like (nos2, il12, and cd80) and M2-like (mrc1, arg1) transcripts. FIG. 20A is a set of two bar graphs depicting gene expression of M1-like and M2-like macrophages, expressed as fold change relative to hprt. […] M1-likeness is determined by summing the changes in expression for each gene resulting from treatment, normalized to the range of expression observed in the training data. […]

IC50 ([2]; read-out: logIC50 of IL12 transcription (converted)) [nM]	IC50 ([2]; read-out: logIC50 of TLR7 expression (converted)) [nM]	EC50 ([1]; Mus musculus, Macrophage, dose response, 48 hours) [nM]	IC50 ([1]; Mus musculus, Macrophage, given as logIC50) [nM]	SMILES	M1 enrichment in response to drug treatment [1]
				COc1ccc(COc2ccc(Cc3cnc(N)nc3N)cc2OC)cc1 [GW2580]	exception
398	7.24	14.1	14.5	CCOCc1nc2c(N)nc3ccccc3c2n1CC(C)(C)O [R848, resiquimod]	
				CCCN(CCC)C(=O)C1=Cc2ccc(-c3ccc(C(=O)N4CCCC4)cc3)cc2N=C(N)C1 [motolimod]	M1 enrichments which were as pronounced as standard M1 induction by LPS and IFNγ
				CCCCOc1nc(N)c2c(n1)N(Cc1cccc(CN3CCCC3)c1)CC(=O)N2 [GS9620]	M1 enrichments which were as pronounced as standard M1 induction by LPS and IFNγ
